In the supplement of paper PMC10307832:

Columns and labels:
Test in all cases: relative viability (nuclei count vs DMSO), 5 days (fraction); higher = more cells survive
Dasatinib + Pictilisib = compound: Cc1nc(Nc2ncc(C(=O)Nc3c(C)cccc3Cl)s2)cc(N2CCN(CCO)CC2)n1 [Dasatinib] + CS(=O)(=O)N1CCN(Cc2cc3nc(-c4cccc5[nH]ncc45)nc(N4CCOCC4)c3s2)CC1 [Pictilisib] (partner 1 µM)
In short: (§1)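 Lung cancer cell lines were pin-tool dosed in 1536-well plates on the day after seeding, with either a lone drug or a fixed anchor-drug dose plus five library-drug doses (not always all listed) in √10 steps. Nuclei were counted on 4× images after 5 days. Relative viability is the ratio of treated-well to vehicle-well nuclei counts, with each value a median of duplicate plates.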

Dasatinib + AZD7762 = compound: Cc1nc(Nc2ncc(C(=O)Nc3c(C)cccc3Cl)s2)cc(N2CCN(CCO)CC2)n1 [Dasatinib] + NC(=O)Nc1cc(-c2cccc(F)c2)sc1C(=O)N[C@H]1CCCNC1 [AZD7762] (partner 0.2 µM)
In short: as §1

ALW-II-49-7 + Olaparib = compound: Cc1ccc(C(=O)Nc2cccc(C(F)(F)F)c2)cc1Nc1cncc(C(N)=O)c1 [ALW-II-49-7] + O=C(c1cc(Cc2n[nH]c(=O)c3ccccc23)ccc1F)N1CCN(C(=O)C2CC2)CC1 [Olaparib] (partner 8 µM)
In short: as §1

[1] = compound: Cc1ccc(C(=O)Nc2cccc(C(F)(F)F)c2)cc1Nc1cncc(C(N)=O)c1 [ALW-II-49-7] + CC(=O)c1c(C)c2cnc(Nc3ccc(N4CCNCC4)cn3)nc2n(C2CCCC2)c1=O [Palbociclib] (partner 0.5 µM)
In short: as §1

Cell Line | relative viability (Dasatinib + Pictilisib; first compound 0.005 µM) | relative viability (Dasatinib + Pictilisib; first compound 0.01581 µM) | relative viability (Dasatinib + Pictilisib; first compound 0.05 µM) | relative viability (Dasatinib + Pictilisib; first compound 0.1581 µM) | relative viability (Dasatinib + Pictilisib; first compound 0.5 µM) | relative viability (Dasatinib + AZD7762; first compound 0.005 µM) | relative viability (Dasatinib + AZD7762; first compound 0.01581 µM) | relative viability (Dasatinib + AZD7762; first compound 0.05 µM) | relative viability (Dasatinib + AZD7762; first compound 0.1581 µM) | relative viability (Dasatinib + AZD7762; first compound 0.5 µM) | relative viability (ALW-II-49-7 + Olaparib; first compound 0.08 µM) | relative viability (ALW-II-49-7 + Olaparib; first compound 0.253 µM) | relative viability (ALW-II-49-7 + Olaparib; first compound 0.8 µM) | relative viability (ALW-II-49-7 + Olaparib; first compound 2.53 µM) | relative viability (ALW-II-49-7 + Olaparib; first compound 8 µM) | relative viability ([1]; first compound 0.08 µM) | relative viability ([1]; first compound 0.253 µM) | relative viability ([1]; first compound 0.8 µM) | relative viability ([1]; first compound 2.53 µM) | relative viability ([1]; first compound 8 µM)
NCI-H838 | 0.444 | 0.297 | 0.276 | 0.218 | 0.189 | 0.868 | 0.786 | 0.811 | 0.685 | 0.669 | 0.715 | 0.744 | 0.881 | 0.844 | 0.7 | 0.246 | 0.225 | 0.203 | 0.232 | 0.191
NCI-H1355 | 0.452 | 0.233 | 0.397 | 0.297 | 0.282 | 0.851 | 0.711 | 0.694 | 0.571 | 0.535 | 0.68 | 0.822 | 0.846 | 0.655 | 0.651 | 0.372 | 0.428 | 0.376 | 0.4 | 0.436
NCI-H1395 | 0.713 | 0.593 | 0.552 | 0.337 | 0.376 | 0.401 | 0.39 | 0.358 | 0.356 | 0.356 | 0.473 | 0.449 | 0.435 | – | 0.459 | 0.583 | 0.689 | 0.691 | – | 0.495
NCI-H1437 | 0.543 | 0.408 | 0.37 | 0.31 | 0.222 | 1.22 | 1.05 | 1.04 | 0.893 | 0.221 | 0.611 | 0.631 | 0.658 | 0.647 | 0.601 | 0.288 | 0.318 | 0.286 | 0.34 | 0.315
NCI-H1651 | 0.716 | 0.499 | 0.46 | 0.423 | 0.419 | 0.475 | 0.384 | 0.382 | 0.374 | 0.333 | 0.15 | 0.176 | 0.176 | 0.169 | 0.171 | 0.522 | 0.476 | 0.49 | 0.439 | 0.444
NCI-H1666 | 0.546 | 0.442 | 0.522 | 0.295 | 0.316 | 0.852 | 0.685 | 0.762 | 0.622 | 0.411 | 0.692 | 0.798 | 0.684 | 0.738 | 0.728 | 0.663 | 0.655 | 0.692 | 0.67 | 0.666
NCI-H1734 | 0.367 | 0.362 | 0.355 | 0.307 | 0.229 | 0.524 | 0.482 | 0.482 | 0.406 | 0.386 | 0.57 | 0.628 | 0.596 | 0.46 | 0.558 | 0.293 | 0.376 | 0.355 | 0.319 | 0.296
NCI-H1755 | 0.317 | 0.21 | 0.191 | 0.182 | 0.139 | 0.424 | 0.33 | 0.296 | 0.25 | 0.215 | 0.888 | 0.942 | 0.913 | 0.798 | 0.627 | 0.439 | 0.498 | 0.41 | 0.415 | 0.431
NCI-H1792 | 0.317 | 0.222 | 0.234 | 0.128 | 0.0699 | 0.62 | 0.532 | 0.489 | 0.19 | 0.0904 | 0.501 | 0.384 | 0.6 | 0.327 | 0.342 | 0.564 | 0.454 | 0.471 | 0.522 | 0.548
NCI-H1793 | 0.316 | 0.395 | 0.29 | 0.311 | 0.31 | 0.425 | 0.369 | 0.247 | 0.229 | 0.273 | 0.977 | 0.834 | 0.785 | 0.911 | 0.753 | 0.323 | 0.278 | 0.29 | 0.291 | 0.33
NCI-H1915 | 0.936 | 0.84 | 0.763 | 0.463 | 0.231 | 0.693 | 0.616 | 0.509 | 0.21 | 0.212 | 0.243 | 0.275 | 0.224 | 0.211 | 0.398 | 0.618 | 0.595 | 0.543 | 0.453 | 0.414
NCI-H1944 | 0.308 | 0.274 | 0.274 | 0.258 | 0.268 | 0.41 | 0.388 | 0.294 | 0.21 | 0.187 | 0.451 | 0.391 | 0.381 | 0.375 | 0.374 | 0.353 | 0.32 | 0.327 | 0.346 | 0.351
NCI-H1975 | 0.315 | 0.225 | 0.207 | 0.0981 | 0.201 | 0.714 | 0.538 | 0.578 | 0.442 | 0.317 | 0.739 | 0.845 | 0.793 | 0.682 | 0.683 | 0.608 | 0.58 | 0.459 | 0.59 | 0.44
NCI-H1993 | 0.923 | 0.682 | 0.723 | 0.776 | 0.866 | 0.777 | 0.639 | 0.755 | 0.444 | 0.485 | 1.01 | 1.02 | 0.928 | 1.06 | 1.32 | 0.717 | 0.717 | 0.571 | 0.705 | 0.684
NCI-H2085 | 0.399 | 0.31 | 0.242 | 0.218 | 0.167 | 0.992 | 0.688 | 0.436 | 0.39 | 0.2 | 0.701 | 0.776 | 0.756 | 0.844 | 0.763 | 0.441 | 0.448 | 0.466 | 0.432 | 0.454
NCI-H2087 | 0.952 | 1.01 | 1.17 | 0.737 | 0.494 | 1.34 | 1.19 | 1.49 | 0.857 | 0.556 | 0.583 | 0.569 | 0.463 | 0.578 | 0.514 | 0.227 | 0.261 | 0.239 | 0.255 | 0.22
